Values of other authors, collected in patent US20190091195A1, “USE OF DIANHYDROGALACTITOL AND DERIVATIVES THEREOF IN THE TREATMENT OF GLIOBLASTOMA, LUNG CANCER, AND OVARIAN CANCER” (Del Mar Pharmaceuticals, priority 2015, published 2019).

Experiments:
[1] = cited from earlier work
GSK-3β = GSK-3β (Homo sapiens, UniProt P49841); settings: cited from earlier work
GSK-3β, sequence (P49841 whole entry, species assumed): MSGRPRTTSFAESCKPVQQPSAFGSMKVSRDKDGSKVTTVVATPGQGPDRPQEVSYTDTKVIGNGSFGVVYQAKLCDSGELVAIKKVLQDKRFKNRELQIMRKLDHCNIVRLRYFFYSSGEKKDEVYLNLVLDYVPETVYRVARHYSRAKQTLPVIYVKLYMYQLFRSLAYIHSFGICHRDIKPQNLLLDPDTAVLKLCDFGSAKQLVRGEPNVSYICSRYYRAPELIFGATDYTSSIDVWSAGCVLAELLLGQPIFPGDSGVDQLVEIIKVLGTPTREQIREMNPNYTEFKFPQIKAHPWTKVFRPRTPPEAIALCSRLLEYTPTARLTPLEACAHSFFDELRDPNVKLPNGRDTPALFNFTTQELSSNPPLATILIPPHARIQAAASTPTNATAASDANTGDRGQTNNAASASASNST

SMILES	absorption by the oral route [1]	concentration for inhibition of GSK-3β (GSK-3β) [nM]
O[C@H]([C@H](O)[C@@H](O)CBr)[C@H](O)CBr [dibromodulcitol]	rapid and fairly complete	
CN1C(=O)/C(=C2/C(=O)Nc3ccccc32)c2ccccc21 [Meisoindigo]		5 to 50
